Assay results published in patent US6949529B2, “Compositions containing lysophosphotidic acids which inhibit apoptosis and uses thereof” (Sky High, LLC, priority 1997, dated 2005).

Tests used:
C3H/10T½ cells [1] = test: Effect of proteins on anti-apoptotic activity of soy LPA, C3H/10T½ cell assay; assay type: cell-based; settings: for Protein + 10 μg/mL Soy LPA, percent cells saved from apoptosis: 1:10 soy-LPA to protein (weight:weight), 24 h serum deprivation; for enhancement of the anti-apoptotic activity of LPA: protein added together with soy-LPA
Method: Soy derived LPA (soy-LPA) (Avanti® Polar Lipids, Inc., Alabaster, Ala.) was stored in an organic solution and was dried immediately prior to assay using a Speed Vac (Savant Instruments, Hicksville, N.Y.). Tested proteins were resuspended at 10 mg/mL in a bicarbonate buffered saline/EDTA solution (50 mM NH4HCO3, 104 mM NaCl, 250 μM EDTA) prior to being added to dried soy-LPA at a 1:10 soy-LPA to protein (weight:weight) ratio. The mixture was then sonicated for 5 minutes using a high power 80 Watt sonication bath (Laboratory Supplies Co., Hicksville, N.Y.). Following sonication, concentrated LPA/protein mixtures were left standing for 15 minutes at room temperature prior to dilution in cell culture assay media.
The effect of various proteins on the ability of LPA to protect serum-starved cells from apoptotic death was measured using the C3H/10T½ cell assay, performed as described in Example 2, above. Log phase cells were seeded in 60 mm Petri dishes at 175-350 cells per cm^2 and maintained in Basal Medium Eagle (BME) supplemented with 10% fetal calf serum (Hyclone, Logan, Utah). At time zero, serum containing media was replaced with sterile filtered BME containing the LPA/protein mixture to be tested. After 24 hours of treatment, serum deprived release (SDR) cells (the apoptotic cell population) and adherent (ADH) cells were separated and counted using an electronic cell counter (Coulter Corporation, Hialea, Fla.). SDR cells were counted with the lower threshold setting at 6.3 μm and were defined as the apoptotic cells dying in response to cultivation in serum-free-media. Approximately 95% of the SDR cells are confirmed to be apoptotic as previously shown by size, ultrastructure and DNA fragmentation analysis. Adherent cells were removed by treatment with a Hanks' balanced salt solution containing 0.05% trypsin and 0.53 mM EDTA and were counted with the lower threshold setting at 11.01 μm. All samples were tested in triplicate and serum-deprived controls (BME only) were assayed at both the beginning and end of each experiment.
The effects of various proteins alone or in combination with LPA are expressed as percent cells saved from apoptosis. When C3H10T½ cells were treated with 10 μg/mL soy LPA without protein, 8.0% of the cells were saved. The degree of protection from apoptosis afforded by protein alone, added to the medium at a concentration of 0.1% (wt/vol.), varied from 0.9% to 27.7% of cells saved from apoptosis. An unusually high percentage of cells were protected from serum-starvation-induced apoptosis by casein. This value may be artificially high, as casein preparations have been known to contain growth factors, including insulin-like growth factors (IGF) IGF1 and IGF2. IGF2 is a mitogen that can mask the serum deprivation-induced apoptotic response in these cells.

[2] = Size shift assay on Superdex S75 column; assay type: binding; settings: soy LPA with 0.5 μCi ^3H-labeled 18:1-LPA, with test protein
Method: Size shift assay. Size analysis of LPA both with and without protein was performed using a Superdex® S75 column (Pharmacia Biotech, Uppsala, Sweden). Soy LPA was combined in a chloroform solution with 0.5 μCi ^3H-labeled 18:1-LPA (DuPont NEN Products, Boston, Mass.), dried under vacuum and resuspended by sonication in a buffered solution (50 mM ammonium bicarbonate, 154 mM sodium chloride, pH 8.0) in the presence or absence of test protein. The ammonium bicarbonate/sodium chloride solution was used as the mobile phase at a flow rate of 1 ml/min. One-minute fractions were collected for 30 minutes following sample injection. Fractions were counted in scintillant solution using a liquid scintillation counter (Beckman Instruments, Irvine, Calif.). Calibration was performed using a standard solution containing purified proteins (BioRad, Hercules, Calif.).

C3H/10T½ cells [3] = test: C3H/10T½ serum deprivation anti-apoptotic activity assay; assay type: cell-based; settings: for Maximum effect relative to 18:1 LPA: LPA alone, 24 h serum deprivation, 18:1 LPA = 100%; for activity compared with lysophosphatidic acid: summary of Table 3
Description: In order to determine the apoptotic activity of the claimed invention, the following method of analysis was used. The-cell assay is described in detail in U.S. Pat. Nos. 5,637,486, 5,620,888, and 5,681,703, and Tomei et al. (1993) Proc Natl. Acad. Sci. 90:853-857. Briefly, mouse fibroblast C3H/10T½ cells (clone 8) were obtained from ATCC (Rockville, Md.) and were maintained in exponential growth phase in which the cell cycle is randomly distributed and no cells are arrested in G0, and in quiescence. Exponential growth phase was assured by seeding at 2000 cells per 1 ml (5 ml for a 60 mm culture plate) five days prior to the beginning of the experiment. Assays were performed on cells only up to passage 15. At T=0, cultures were transferred to serum-free medium, as an apoptosis stimulus, and seed extracts were added. Controls included 10-7 and 5×10^-8 M 12-O-tetradecanoyl phorbol-13-acetate (TPA) to ensure the responsiveness of the cell culture. The samples were added to serum free medium and sterile filtered prior to addition to the cultures. Assays were performed in triplicate or quadruplicate. Analyses of the cell responses were made between 18 and 28 hours of serum deprivation. Two assays were performed on each cell culture plate consisting of differential cell counts.
1. All non-adherent or loosely adherent cells were removed from the culture dish and counted by appropriate techniques, typically counting by electronic particle counting instrument. These are the apoptotic cells, the serum deprived released cells (SDR), released by the action of cultivation in serum-free medium. Approximately 95% of these released cells are apoptotic as shown by both ultrastructure analysis and DNA fragmentation analysis.
2. The remaining adherent cells (ADH) were exposed to a buffered, typically pH 7.3, balanced salt solution such as Hanks Balanced Salt Solution without calcium and magnesium salts containing 0.05% trypsin and 0.53 mM ethylene diaminetetraacetic acid (EDTA). Each culture was incubated at either room temperature or 37° C. on a rocking platform to ensure uniform distribution of the trypsin reagent over the culture surface. After a standardized period of time, typically 10 minutes, the released cells were removed from each culture dish and measured by the same means as described above, typically electronic particle counting. This ADH cell count is comprised of both trypsin resistant and trypsin sensitive cells as described in U.S. Pat. Nos. 5,637,486, 5,620,888, and 5,681,703.
Anti-apoptotic activity is expressed in the following examples as the calculated concentration of material (μg/ml of media) required to save 50% of the cells released on serum free treatment.
The ability of 18:1-LPA and other LPAs to protect serum-starved cells from apoptotic death was measured using the C3H/10T½ cell assay, performed as described in Example 2. The effect of various compounds on the ability of lysophosphatidic acid to protect serum-starved cells from apoptotic death was also measured. Log phase cells were seeded in 60 mm Petri dishes at 175-350 cells per cm2 and maintained in Basal Medium Eagle (BME) supplemented with 10% Heat Inactivated Fetal Bovine Serum (HIFBS). On day 3 the cells were given fresh media. Treatment began on day 5 when the media containing serum was removed and replaced with the LPA mixture to be tested. After 24 hours of treatment, day 6, serum deprived released (SDR) cells (the apoptotic cell population) and adherent (ADH) cells were separated and counted using an electronic cell counter Coulter Corporation, Hialea, Fla.). SDR cells were counted with the lower threshold setting at 6.3 μm and were defined as the apoptotic cells dying in response to cultivation in serum free media. Approximately 95% of the SDR cells were confirmed to be apoptotic as previously shown by size, ultrastructure and DNA fragmentation analysis. […]

[4] = Electrophoresis radiobinding assay on native polyacrylamide gel; assay type: binding; settings: 1 nM labeled 18:1-LPA/45 μg protein, 37° C., 60 minutes
Method: Electrophoresis radiobinding assay. Proteins were analyzed on native polyacrylamide gels following incubation with ^3H-labeled 18:1-LPA. ^3H-labeled lysophosphatidic acid (1-oleyl) (DuPont NEN Products, Boston, Mass.) was added to tested proteins at 1 nM labeled 18:1-LPA/45 μg protein. Mixtures were incubated in a bicarbonate buffered saline/EDTA solution at 37° C. for 60 minutes. Incubated samples were mixed with native gel sample buffer (312 mM Tris pH 6.8, 50% glycerol, 0.05% bromophenol blue) and loaded entirely onto an 8% discontinuous native polyacrylamide gel. Following electrophoresis, proteins were fixed into the gels using an aqueous solution consisting of glacial acetic acid, 10% (vol/vol) and methanol 30% (vol./vol.) solution. Fixed gels were then incubated for 60 minutes in autoradiography enhancer (EN^3HANCE, DuPont NEN Products, Boston, Mass.), and dried onto 3M chromatography paper (Whatman, Clifton, N.J.) and exposed to autoradiography film (X-Omat, Kodak, Rochester, N.Y.) for 72 hours at −80° C.

[5] = compounds exhibiting toxicity, Table 3 column Concentration for Max Effect

In the case of Casein, the “Protein + 10 μg/mL Soy LPA, percent cells saved from apoptosis” value (C3H/10T½ cells [1]) is reported as 84.3%.

With Cytochrome C: source bovine heart the “3H-LPA Size Shift Analysis (+/−)” value [2] was “LPA does not bind to this protein” and the “Protein + 10 μg/mL Soy LPA, percent cells saved from apoptosis” value (C3H/10T½ cells [1]) was 54.6%.

With `CCCCCCCC/C=C\CCCCCCCC(=O)NCCOP(=O)(OC)OC` [Compound 59, Dimethyl 2-amino-2-N-oleoyl-ethyl phosphate] the “Maximum effect relative to 18:1 LPA” value (C3H/10T½ cells [3]) was “Toxic” and the “lowest concentration at which cytotoxic effects were observed” value (“lowest concentration” for short) (C3H/10T½ cells [3]; [5]) was 30 µM.

In the case of `CCCCCCCCCCCCCCOCC(O)COP(=O)(O)O` (racemic) [Compound 4, 3-O-Tetradecyl-rac-glycero-1-phosphate], the “Maximum effect relative to 18:1 LPA” value (C3H/10T½ cells [3]) is reported as “Toxic” and the “lowest concentration” value (C3H/10T½ cells [3]; mouse, 24 h) is reported as 10 µM.

With `CCCCCCCC/C=C\CCCCCCCCOCC(COP(O)(O)=S)OC` (racemic) [Compound 66, 3-O-Oleyl-2-O-methyl-rac-glycero-1-thiophosphate] the “activity compared with lysophosphatidic acid” value (C3H/10T½ cells [3]) was “significantly higher than lysophosphatidic acid”.

With `CCCCCCCC/C=C\CCCCCCCC(=O)OCC(COP(O)(O)=S)OC` (racemic) [Compound 48, 3-O-Oleoyl-2-O-methyl-rac-glycero-1-thiophosphate] the “activity compared with lysophosphatidic acid” value (C3H/10T½ cells [3]) was “significantly higher than lysophosphatidic acid”.

For `CCCCCCCC/C=C\CCCCCCCCOC(=O)C(COP(O)(O)=S)OC` (racemic) [Compound 78, Oleyl 1-thiophosphoryl-2-O-methyl-rac-glycerate], the “activity compared with lysophosphatidic acid” value (C3H/10T½ cells [3]) was “significantly higher than lysophosphatidic acid”.

With `CCCCCCCCCCCCCCOCC1CO1` (stereo not shown) [Compound 8, 1-O-Tetradecyl-glycidol] the “Maximum effect relative to 18:1 LPA” value (C3H/10T½ cells [3]) was “Toxic” and the “lowest concentration” value (C3H/10T½ cells [3]; [5]) was 30 µM.

In the case of “Dimethyl 3-amino-3-N-oleoyl-propyl phosphate [Compound 53]”, the “Maximum effect relative to 18:1 LPA” value (C3H/10T½ cells [3]) is reported as “Toxic” and the “lowest concentration” value (C3H/10T½ cells [3]; [5]) is reported as 100 µM.

With Acyl Carrier Protein: source E. coli the “Detectable Acrylamide Gel ^3H LPA Binding (+/−)” value [4] was “did not yield detectable bands” and the “Protein + 10 μg/mL Soy LPA, percent cells saved from apoptosis” value (C3H/10T½ cells [1]) was 36.2%.

For “Phosphatidylserine [Phosphatidylserine (PS), reference compound]”, the “toxicity to serum-deprived cells” value (C3H/10T½ cells [3]; PS alone (FIG. 2)) was “slightly toxic”.

In the case of Myelin Basic Protein, the “Protein + 10 μg/mL Soy LPA, percent cells saved from apoptosis” value (C3H/10T½ cells [1]) is reported as 17.0% and the “enhancement of the anti-apoptotic activity of LPA” value (C3H/10T½ cells [1]) is reported as “did not enhance”.

In the case of `CCCCCCCCCCCCCCOCC(O)COP(=O)(OC)OC` (racemic) [Compound 3, Dimethyl 3-O-tetradecyl-rac-glycero-1-phosphate], the “Maximum effect relative to 18:1 LPA” value (C3H/10T½ cells [3]) is reported as “Toxic” and the “lowest concentration” value (C3H/10T½ cells [3]; [5]) is reported as 30 µM.

B1: Myoglobin: source horse heart (protein, UniProt P68082 2-154, looked up)
Myoglobin: GLSDGEWQQVLNVWGKVEADIAGHGQEVLIRLFTGHPETLEKFDKFKHLKTEAEMKASEDLKKHGTVVLTALGGILKKKGHHEAELKPLAQSHATKHKIPIKYLEFISDAIIHVLHSKHPGDFGADAQGAMTKALELFRNDIAAKYKELGFQG
With B1 the “Protein + 10 μg/mL Soy LPA, percent cells saved from apoptosis” value (C3H/10T½ cells [1]) was 27.8%.

B2: Ovalbumin: source chicken egg (protein, UniProt P01012 2-386, looked up)
Ovalbumin: GSIGAASMEFCFDVFKELKVHHANENIFYCPIAIMSALAMVYLGAKDSTRTQINKVVRFDKLPGFGDSIEAQCGTSVNVHSSLRDILNQITKPNDVYSFSLASRLYAEERYPILPEYLQCVKELYRGGLEPINFQTAADQARELINSWVESQTNGIIRNVLQPSSVDSQTAMVLVNAIVFKGLWEKAFKDEDTQAMPFRVTEQESKPVQMMYQIGLFRVASMASEKMKILELPFASGTMSMLVLLPDEVSGLEQLESIINFEKLTEWTSSNVMEERKIKVYLPRMKMEEKYNLTSVLMAMGITDVFSSSANLSGISSAESLKISQAVHAAHAEINEAGREVVGSAEAGVDAASVSEEFRADHPFLFCIKHIATNAVLFFGRCVSP
For B2, the “Detectable Acrylamide Gel ^3H LPA Binding (+/−)” value [4] was “detectable band”, the “Protein + 10 μg/mL Soy LPA, percent cells saved from apoptosis” value (C3H/10T½ cells [1]) was 15.1% and the “enhancement of the anti-apoptotic activity of LPA” value (C3H/10T½ cells [1]) was “did not enhance”.
